Activity calls are given as the source filed them. The rule behind the calls is not given here. A value given as a limit tells only on which side of the number the result lay.

The target in this assay is Peptidyl-prolyl cis-trans isomerase FKBP1A (Homo sapiens) (UniProt P62942). Kind of assay: FKBP12 binders, biophysical, NMR detection (AID 608). The following applies: NMR binding, purified FKBP12.
Peptidyl-prolyl cis-trans isomerase FKBP1A (Homo sapiens), sequence (P62942 whole entry, looked up): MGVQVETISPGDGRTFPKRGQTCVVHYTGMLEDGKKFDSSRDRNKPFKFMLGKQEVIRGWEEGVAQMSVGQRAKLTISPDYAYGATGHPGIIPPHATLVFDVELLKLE
One may read the Kd as the constant that tells how readily two partners part at equilibrium. For `CC1=CC(=O)CC(C)(C)C1(O)/C=C/C(C)=C\C(=O)O` (stereo not drawn), the Kd is > 4 mM (inactive).
To `Nc1ncnc2nc(SCCN3CCCCC3)[nH]c12` belongs > 4 mM (inactive); to `CC1(C)O[C@H]2CC(=O)OC[C@]23[C@H]2CC[C@@]4(C)[C@H](c5ccoc5)OC(=O)[C@H]5O[C@]54[C@]2(C)C(=O)C[C@@H]13`, > 4 mM (inactive); to `CCSc1n[nH]c(=O)[nH]c1=O`, > 4 mM (inactive).
Next, `CC(=O)c1c(C)nc2ccccc2c1N`: > 4 mM (inactive); `COc1ccc2c(c1)O[C@H]1c3ccc(OC)cc3OC[C@@H]21`: > 4 mM (inactive).
For `O=[n+]1c2c(n([O-])c3ccccc31)CCCC2`, the Kd was > 4 mM (inactive).
For `COc1ccc(/C=C2\NC(=S)N(C)C2=O)cc1O`, the Kd was > 4 mM (inactive).
As for `NC12CC3CC(C1)CC(C(=O)O)(C3)C2`, the Kd is > 4 mM (inactive).
Next, `Cc1c(C(=O)Nn2cnnc2)oc2ccccc12`: > 4 mM (inactive); `COc1ccc2[nH]cc(CN(C)C)c2c1`: > 4 mM (inactive); `c1coc(-c2nc(-c3ccncc3)no2)c1`: > 4 mM (inactive).
As to `O=c1c(O)cccc2cc(O)c(O)c(O)c12`, the Kd was > 4 mM (inactive).
To `Cc1ccc(N)nc1` belongs > 4 mM (inactive).
In the case of `CCOC(=O)N1CCCC1c1cccnc1` (stereo not drawn), the Kd is > 4 mM (inactive).
To `CN(C)S(=O)(=O)c1ccc(N2CCOCC2)nc1` belongs > 4 mM (inactive).
Next, `Cc1occc1C(=O)NCc1ccncc1`: > 4 mM (inactive); `CC(=O)c1ccc(NS(=O)(=O)c2cccc(C)c2)cc1`: > 4 mM (inactive); `Nc1nsc(-c2ccccc2)n1`: > 4 mM (inactive).
Consider `O=C(O)C1CSC(c2ccc(Cl)cc2)N1` (stereo not drawn), for which the Kd was > 4 mM (inactive).
Next, `CC(=O)OC1CC[C@@]2(C)C(CCC3C2CC[C@]2(C)C(C4=CC(=O)OC4)C(OC(C)=O)CC32O)C1` (stereo partly drawn): > 4 mM (inactive); `CC(=O)c1c(O)c(C)c(O)c2c1OC1=CC(=O)C(C(C)=O)C(=O)C12C` (stereo not drawn): > 4 mM (inactive); `O=C(O)c1ccc(N2CCOCC2)cc1`: > 4 mM (inactive).
Take `NCC(N)C(=O)c1ccccc1` (stereo not drawn): the Kd is > 4 mM (inactive).
For the compound `O=c1cc(-c2ccc(O)cc2)[nH]c(=S)[nH]1`, the Kd was > 4 mM (inactive).
To `COC(=O)C1CCN(c2ccc(Cl)nn2)CC1` belongs > 4 mM (inactive); to `CNC(=O)Nc1cccc(C(F)(F)F)c1`, > 4 mM (inactive); to `CC(C)(O)P(C)(=O)c1ccccc1` (stereo not drawn), > 4 mM (inactive).
To `O=C(Nc1ccncc1)Nc1ccc(F)cc1F` belongs > 4 mM (inactive); to `O=C(NC1=NCCS1)c1ccc2snnc2c1`, > 4 mM (inactive); to `Cc1nn(CC(=O)N2CCCCC2)c(=O)c2ccccc12`, > 4 mM (inactive).
To `O=C1CSC(=NC(=O)c2ccccc2)N1` belongs > 4 mM (inactive); to `COc1c2c(cc3cc[n+](C)cc13)OCO2`, > 4 mM (inactive).
`Cc1occc1C(=O)Nc1nnc(C(F)(F)F)s1`: the Kd is > 4 mM (inactive).
With `Cc1ccc(NC(=O)c2ccccc2)s1`, the Kd is > 4 mM (inactive).
Turning to `CSc1nc(C)cc(Oc2ccc(=O)n(C)n2)n1`, the Kd was > 4 mM (inactive).
On to `COC(=O)C1COCCN1C(=O)CSc1ccc(C(C)C)cc1` (stereo not drawn), for which the Kd was 0.0003 mM.
Regarding `O=C1CCc2ccccc2CN1`, the Kd was > 4 mM (inactive).
On to `Cc1cc(=O)n(CC(C)C)c(O)c1C#N`, for which the Kd is > 4 mM (inactive).
Next, `C/C=C(\C)C(=O)O[C@H]1C[C@@H](OC(C)=O)[C@@]2(C(=O)OC)CO[C@@H]3C2[C@]12CO[C@](O)(C(=O)OC)[C@H]2[C@](C)(C12O[C@@]1(C)[C@H]1C[C@@H]2OC2OC=C[C@@]21O)[C@@H]3O` (stereo partly drawn): > 4 mM (inactive); `NC(=O)C1CCN(Cc2ccccc2)CC1`: > 4 mM (inactive); `COc1ccc2c(c1)C(NC(C)=O)C(=O)N2C` (stereo not drawn): > 4 mM (inactive).
To `Cc1ccc(C(C)C)c(OCCNC(=O)c2ccccc2OCC(=O)N2CCOCC2)c1` belongs “inactive”.
As for `Cc1occc(=O)c1O`, the Kd is > 4 mM (inactive).
Next, `Cc1sc2nc(SC3CCOC3=O)[nH]c(=O)c2c1C` (stereo not drawn): > 4 mM (inactive).
To `CC1CN(C(=O)C(Sc2ccccc2)c2ccccc2)CC(C)O1` (stereo not drawn) belongs “inactive”.
In the case of `CC(=O)O[C@@H]1CC2C(C)(C)C=CC(=O)[C@]2(C)C2CC[C@@]3(C)[C@H](c4ccoc4)OC(=O)C4OC43[C@@]21C` (stereo partly drawn), the Kd is > 4 mM (inactive).
With `NC(=O)CSCc1ccc(Br)cc1`, the Kd is > 4 mM (inactive).
As to `COCc1c(CN)cnc(C)c1N`, the Kd was > 4 mM (inactive).
On to `Nc1cc(=O)[nH]c(=O)n1Cc1ccco1`, for which the Kd was > 4 mM (inactive).
Consider `Cn1nnc2cc(C(=O)NCc3ccco3)ccc21`, for which the Kd is > 4 mM (inactive).
Next, `NC(=O)Cn1cnc(-c2ccc(F)cc2)c1`: > 4 mM (inactive); `COc1c2ccoc2nc2c(OC)c(OCC(O)C(C)(C)O)ccc12` (stereo not drawn): > 4 mM (inactive).
Consider `c1ccc(-c2noc(-c3cccnc3)n2)nc1`, for which the Kd is > 4 mM (inactive).
Next, `CC(=O)c1cccc(NC(=O)Nc2c(C)nn(C)c2C)c1`: > 4 mM (inactive); `Cc1noc(-c2ccccc2)c1C(=O)O`: > 4 mM (inactive); `O=C(O)CCC(=O)Nc1ccccc1F`: > 4 mM (inactive).
`CCn1nnc(NC(=O)c2cc3ccccc3o2)n1`: the Kd is > 4 mM (inactive).
Next, `Cc1ccc(-c2ccc(OCC(=O)N3CCOCC3)cc2)cc1`: “inactive”; `NCc1ccc2sccc2c1`: > 4 mM (inactive); `O=C(NCc1ccco1)c1nc2ncccn2n1`: > 4 mM (inactive).
To `O=C(c1cc2ccccc2o1)N1CCCCCC1` belongs 0.184 mM; to `CC(=O)Nc1cccc(N2CCCC2=O)c1`, > 4 mM (inactive).
`CCN1CCC(=NO)CC1`: the Kd was > 4 mM (inactive).
On to `CSCCNC(C)=O`, for which the Kd is > 4 mM (inactive).
As to `S=C(NC1CC1)NN1CCOCC1`, the Kd was > 4 mM (inactive).
Next, `NC(=O)C1CCN(C(=S)c2cccs2)CC1`: > 4 mM (inactive); `NC(=O)/C=C/C(=O)Nc1ccccc1`: > 4 mM (inactive); `COC(=O)c1c(C)cc(OC)cc1O`: > 4 mM (inactive).
To `COC(=O)c1ccc2ncccc2c1` belongs > 4 mM (inactive); to `Cc1cc2ncn(S(=O)(=O)N3CCCCC3)c2cc1C`, > 4 mM (inactive); to `OCc1csc(-c2ccccc2)n1`, > 4 mM (inactive).
Next, `CC1(C)C2CC[C@]3(C)C(C(=O)C=C4[C@H]5C[C@@](C)(C(=O)O)CC[C@]5(C)CC[C@]43C)[C@@]2(C)CC[C@@H]1O` (stereo partly drawn): > 4 mM (inactive); `O=S(=O)(Nc1ccc2c(c1)oc1ccccc12)N1CCCCC1`: > 4 mM (inactive).
On to `CC(=O)CS(=O)(=O)c1ccccc1`, for which the Kd is > 4 mM (inactive).
`Cc1cc(=O)[nH]c(NCc2cccnc2)n1`: the Kd was > 4 mM (inactive).
Regarding `C[C@]12CCC3C(CC[C@H]4C[C@@H](O)CC[C@]34C)C1CCC2=O` (stereo partly drawn), the Kd was > 4 mM (inactive).
In the case of `CCn1cnc(C(=O)NC)c1C(=O)NC`, the Kd was > 4 mM (inactive).
For `CC1(C)C=CC(=O)[C@@]2(C)C1CC(=O)[C@]1(C)C2CC[C@@]2(C)[C@H](c3ccoc3)OC(=O)C3OC321` (stereo partly drawn), the Kd was > 4 mM (inactive).
`CCN1CCC2(CC1)CC1CC3C=CC1(CN2C(C)=O)O3` (stereo not drawn): the Kd is > 4 mM (inactive).
Consider `COc1ccc(Cc2nccc3cc(OC)c(OC)cc23)cc1OC`, for which the Kd is > 4 mM (inactive).
On to `CCCCN1C(=O)N(C)C2NC(=O)NC21` (stereo not drawn), for which the Kd was > 4 mM (inactive).
For the compound `O=C(O)CNCC(O)Cn1c2ccccc2c2ccccc21` (stereo not drawn), the Kd was > 4 mM (inactive).
In the case of `CN(C)S(=O)(=O)Nc1ccc(Br)cc1F`, the Kd is > 4 mM (inactive).
Consider `NC(=O)CSc1nnc(-c2cccnc2)o1`, for which the Kd is > 4 mM (inactive).
To `Cc1nc(-c2cc(C(=O)O)no2)cs1` belongs > 4 mM (inactive); to `CC(=O)C1=C(O)C(=O)NC1c1ccccc1` (stereo not drawn), > 4 mM (inactive); to `Cc1ccc(C)n1/N=C1\NC(=O)CS1`, > 4 mM (inactive).
Consider `Cc1nc2ccccc2c(=O)n1-c1cccc(O)c1`, for which the Kd was > 4 mM (inactive).
Next, `CC(=O)c1c(O)cc(O)cc1O`: > 4 mM (inactive); `Nc1cccc(S(N)(=O)=O)c1`: > 4 mM (inactive).
To `Cc1ccc(C(=O)N2CCC(C(=O)O)CC2)cc1` belongs > 4 mM (inactive); to `COc1ccc2c(Cl)c(C(=O)N3CCOCC3)sc2c1Cl`, “inactive”; to `O=C(O)c1cccnc1N1CCOCC1`, > 4 mM (inactive).
Consider `Cn1nc(-c2ccccc2)cc1N`, for which the Kd was > 4 mM (inactive).
`O=C(CSC1=NCCS1)N1CCc2ccccc21`: the Kd is > 4 mM (inactive).
Next, `NC(=O)c1cccc(Cl)n1`: > 4 mM (inactive).
Regarding `Cc1occc1C(=O)Nc1cc(C(C)(C)C)on1`, the Kd is > 4 mM (inactive).
To `O=C(Nc1ccon1)c1ccc(Br)o1` belongs > 4 mM (inactive); to `O=C(Oc1ccc2c(c1)CCC2)N1CCOCC1`, > 4 mM (inactive).
Turning to `CNc1nc(SC)nc(N2CCOCC2)n1`, the Kd was > 4 mM (inactive).
Consider `C[C@@H]1C(=O)O[C@H]2[C@H]1CC[C@@]1(C)C=CC(=O)[C@@]3(C)O[C@@]213`, for which the Kd was > 4 mM (inactive).
Next, `NC1=NC(=O)C(Cc2cccc([N+](=O)[O-])c2)S1` (stereo not drawn): > 4 mM (inactive).

These data come from PubChem BioAssay AID608 (Sanford-Burnham Center for Chemical Genomics, 2007).
